Experimental data taken from patent US20200369728A1, “PEPTIDOMIMETIC MACROCYCLES AND USES THEREOF” (Aileron Therapeutics, Inc., priority 2015, published 2020).
Bridge positions count the residues as written; N and C are the ends. Square brackets hold non-standard residues; d marks the D form. Peptide text beside a SMILES is read from it. R8 = C=CCCCCCC[C@@](C)(N)C(=O)O; Cba = N[C@@H](CC1CCC1)C(=O)O; hLeu = CC(C)CC[C@H](N)C(=O)O; S5 = C=CCCC[C@](C)(N)C(=O)O; Nle = CCCC[C@H](N)C(=O)O; Ac3c = NC1(C(=O)O)CC1

Assays:
[1] = test system: Caspase 3; experiment: Caspase 3 detection assay in SJSA1 cells; assay type: cell-based; settings: SJSA1, 48 h, Caspase 3 activation over DMSO-treated cells
[2] = test system: SJSA-1 cells; experiment: Cell lysis by peptidomimetic macrocycles (LDH release); assay type: cell-based; settings: SJSA-1, 1 h
Procedure: SJSA-1 cells were plated out one day in advance in clear flat-bottom plates (Costar, catalog number 353072) at 7500 cells/well with 100 ul/well of growth media, leaving row H columns 10-12 empty for media alone. On the day of the assay, media was exchanged with RPMI 1% FBS media, 90 uL of media per well.
10 mM stock solutions of the peptidomimetic macrocycles were prepared in 100% DMSO. Peptidomimetic macrocycles were then diluted serially in 100% DMSO, and then further diluted 20-fold in sterile water to prepare working stock solutions in 5% DMSO/water of each peptidomimetic macrocycle at concentrations ranging from 500 μM to 62.5 μM.
10 μL of each compound was added to the 90 uL of SJSA-1 cells to yield final concentrations of 50 μM to 6.25 μM in 0.5% DMSO-containing media. The negative control (non-lytic) sample was 0.5% DMSO alone and positive control (lytic) samples include 10 μM Melittin and 1% Triton X-100.
Cell plates were incubated for 1 hour at 37° C. After the 1 hour incubation, the morphology of the cells is examined by microscope and then the plates were centrifuged at 1200 rpm for 5 minutes at room temperature. 40 μL of supernatant for each peptidomimetic macrocycle and control sample is transferred to clear assay plates. LDH release is measured using the LDH cytotoxicity assay kit from Caymen, catalog #1000882.

| Structure (SMILES) | caspase 0.3 μM [1] | caspase 3 μM [1] | caspase 10 μM [1] | caspase 30 μM [1] | 6.25 μM % Lysed cells (1 h LDH) [2] | 25 μM % Lysed cells (1 h LDH) [2] | 50 μM % Lysed cells (1 h LDH) [2] |
| --- | --- | --- | --- | --- | --- | --- | --- |
| CC(=O)N[C@@H](CC(C)C)C(=O)N[C@H](C(=O)N[C@@H](Cc1ccccc1)C(=O)N[C@]1(C)CCCCCCC=CCCC[C@@](C)(C(=O)N[C@@H](CO)C(=O)N[C@@H](C)C(=O)N[C@@H](Cc2ccccc2)C(=O)N[C@@H](C)C(N)=O)NC(=O)[C@H](CC2CCC2)NC(=O)[C@H](CCC(N)=O)NC(=O)[C@H](C)NC(=O)[C@H](Cc2c[nH]c3ccccc23)NC(=O)[C@H](Cc2ccc(O)cc2)NC(=O)[C@H](CCC(=O)O)NC1=O)[C@@H](C)O [compound 242] (Ac-LTF[R8]EYWAQ[Cba][S5]SAFA-NH2; staple 4-11) | 1 | 4 | 5 | 18 | – | – | – |
| CCCC[C@H](NC(=O)[C@H](C)NC(=O)[C@H](C)NC(=O)[C@]1(C)CCCC=CCCCCCC[C@@](C)(NC(=O)[C@H](Cc2ccccc2)NC(=O)[C@@H](NC(=O)[C@H](CC(C)C)NC(C)=O)[C@@H](C)O)C(=O)N[C@@H](C)C(=O)N[C@@H](Cc2ccc(O)cc2)C(=O)N[C@@H](Cc2c[nH]c3ccccc23)C(=O)N[C@@H](Cc2cc(=O)oc3cc(OC)c(OC)cc23)C(=O)N[C@@H](CCC(N)=O)C(=O)N[C@@H](CC(C)C)C(=O)N1)C(=O)N[C@@H](C)C(N)=O [compound 415] | – | – | – | – | 4% | 2% | 2% |
| CC(=O)N[C@@H](CC(C)C)C(=O)N[C@H](C(=O)N[C@@H](Cc1ccccc1)C(=O)N[C@]1(C)CCCCCCC=CCCC[C@@](C)(C(=O)N[C@@H](CO)C(=O)N[C@@H](C)C(=O)N[C@@H](CCC(C)C)C(N)=O)NC(=O)[C@H](CC(C)C)NC(=O)[C@H](CCC(N)=O)NC(=O)[C@H](C)NC(=O)[C@H](Cc2c[nH]c3ccccc23)NC(=O)[C@H](Cc2ccc(O)cc2)NC(=O)[C@H](C)NC1=O)[C@@H](C)O [compound 6] (Ac-LTF[R8]AYWAQL[S5]SA[hLeu]-NH2; staple 4-11) | – | – | – | – | 1% | 1% | 1% |
| CC[C@H](C)[C@H](NC(=O)[C@H](C)NC(=O)[C@H](C)NC(=O)[C@]1(C)CCCC=CCCCCCC[C@@](C)(NC(=O)[C@H](Cc2ccccc2)NC(=O)[C@@H](NC(=O)[C@H](CC(C)C)NC(C)=O)[C@@H](C)O)C(=O)N[C@@H](CCC(=O)O)C(=O)N[C@@H](Cc2ccc(C(=O)O)cc2)C(=O)N[C@@H](Cc2c[nH]c3cc(Cl)ccc23)C(=O)N[C@@H](C)C(=O)N[C@@H](CCC(N)=O)C(=O)N[C@@H](CC2CCC2)C(=O)N1)C(=O)N[C@H](C)C(N)=O (single isomer, unassigned) [compound 335] | – | – | – | – | 0% | 0% | 1% |
| CCCCCC(=O)N[C@@H](CC(C)C)C(=O)N[C@H](C(=O)N[C@@H](Cc1ccccc1)C(=O)N[C@]1(C)CCCCCCC=CCCC[C@@](C)(C(=O)N[C@@H](CO)C(=O)N[C@@H](C)C(=O)N[C@@H](C)C(N)=O)NC(=O)[C@H](CCC(C)C)NC(=O)[C@H](CCC(N)=O)NC(=O)[C@H](C)NC(=O)[C@H](Cc2c[nH]c3ccccc23)NC(=O)[C@H](Cc2ccc(O)cc2)NC(=O)[C@H](CCC(=O)O)NC1=O)[C@@H](C)O [compound 280] | – | – | – | – | 5% | 6% | 18% |
| CC(=O)N[C@@H](CC(C)C)C(=O)N[C@H](C(=O)N[C@@H](Cc1ccccc1)C(=O)N[C@]1(C)CCCCCCC=CCCC[C@@](C)(C(=O)N[C@@H](C)C(=O)N[C@@H](Cc2c[nH]cn2)C(=O)N[C@@H](Cc2ccccc2)C(=O)N[C@@H](C)C(N)=O)NC(=O)[C@H](CC(C)C)NC(=O)[C@H](CCC(N)=O)NC(=O)[C@H](C(C)C)NC(=O)[C@H](Cc2c[nH]c3ccccc23)NC(=O)[C@H](Cc2c[nH]cn2)NC(=O)[C@H](C)NC1=O)[C@@H](C)O [compound 190] (Ac-LTF[R8]AHWVQL[S5]AHFA-NH2; staple 4-11) | – | – | – | – | −1% | 0% | 1% |
| CCCC[C@H](NC(=O)[C@H](C)NC(=O)[C@H](CO)NC(=O)[C@]1(C)CCCC=CCCCCCC[C@@](C)(NC(=O)[C@H](Cc2ccccc2)NC(=O)[C@@H](NC(=O)[C@H](CC(C)C)NC(C)=O)[C@@H](C)O)C(=O)N[C@@H](C)C(=O)N[C@@H](Cc2ccc(O)cc2)C(=O)N[C@@H](Cc2c[nH]c3ccccc23)C(=O)N[C@@H](C)C(=O)N[C@@H](CCC(N)=O)C(=O)N[C@@H](CC(C)C)C(=O)N1)C(N)=O [compound 3] (Ac-LTF[R8]AYWAQL[S5]SA[Nle]-NH2; staple 4-11) | – | – | – | – | 1% | 1% | 3% |
| CC(=O)N[C@@H](CC(C)C)C(=O)N[C@H](C(=O)N[C@@H](Cc1ccccc1)C(=O)N[C@]1(C)CCCCCCC=CCCC[C@@](C)(C(=O)N[C@@H](C)C(=O)N[C@@H](C)C(=O)N[C@@H](Cc2c[nH]c3ccccc23)C(=O)N[C@H](C)C(N)=O)NC(=O)[C@H](CC(C)C)NC(=O)[C@H](CCC(N)=O)NC(=O)[C@H](C)NC(=O)[C@H](Cc2c[nH]c3ccccc23)NC(=O)[C@H](Cc2ccc(O)cc2)NC(=O)[C@H](C)NC1=O)[C@@H](C)O [compound 211] (Ac-LTF[R8]AYWAQL[S5]AAW[dA]-NH2; staple 4-11) | – | – | – | – | 5% | 3% | 1% |
| CC[C@H](C)[C@H](NC(=O)[C@H](C)NC(=O)[C@H](C)NC(=O)[C@]1(C)CCCC=CCCCCCC[C@@](C)(NC(=O)[C@H](Cc2ccccc2)NC(=O)[C@@H](NC(=O)[C@H](CCC(=O)O)NC(C)=O)[C@@H](C)O)C(=O)N[C@@H](CCC(=O)O)C(=O)N[C@@H](Cc2c[nH]cn2)C(=O)N[C@@H](Cc2c[nH]c3ccccc23)C(=O)N[C@@H](C)C(=O)N[C@@H](CCC(N)=O)C(=O)N[C@@H](CC(C)C)C(=O)N1)C(=O)N[C@H](C)C(N)=O (single isomer, unassigned) [compound 174] | – | – | – | – | 5% | 2% | 5% |
| CC(=O)N[C@@H](CC(C)C)C(=O)N[C@H](C(=O)N[C@@H](Cc1ccccc1)C(=O)N[C@]1(C)CCCCCCC=CCCC[C@@](C)(C(=O)N[C@@H](CO)C(=O)N[C@@H](C)C(=O)N[C@@H](C)C(N)=O)NC(=O)[C@H](CC(C)C)NC(=O)[C@H](CCC(N)=O)NC(=O)[C@H](C)NC(=O)[C@H](Cc2c[nH]c3ccccc23)NC(=O)[C@H](Cc2ccc(C(=O)O)cc2)NC(=O)[C@H](C)NC1=O)[C@@H](C)O (single isomer, unassigned) [compound 169] | – | – | – | – | 2% | 3% | 7% |
| CC(=O)N[C@@H](Cc1ccccc1)C(=O)N[C@]1(C)CCCCCCC=CCCC[C@@](C)(C(=O)N[C@@H](C)C(=O)N[C@@H](C)C(=O)N[C@@H](CC(C)C)C(N)=O)NC(=O)[C@H](CC(C)C)NC(=O)C2(CC2)NC(=O)[C@H](CCC(=O)O)NC(=O)[C@H](Cc2c[nH]c3ccccc23)NC(=O)[C@H](Cc2ccc(O)cc2)NC(=O)[C@H](C)NC1=O [compound 15] (Ac-F[R8]AYWE[Ac3c]L[S5]AAL-NH2; staple 2-9) | – | – | – | – | 1% | 2% | 5% |
| CC[C@H](C)[C@H](NC(=O)[C@H](C)NC(=O)[C@H](C)NC(=O)[C@]1(C)CCCC=CCCCCCC[C@@](C)(NC(=O)[C@H](Cc2ccccc2)NC(C)=O)C(=O)N[C@@H](C)C(=O)N[C@@H](Cc2ccc(O)cc2)C(=O)N[C@@H](Cc2c[nH]c3ccccc23)C(=O)N[C@@H](CCC(=O)O)C(=O)NC2(CC2)C(=O)N[C@@H](CC(C)C)C(=O)N1)C(N)=O [compound 19] (Ac-F[R8]AYWE[Ac3c]L[S5]AAI-NH2; staple 2-9) | – | – | – | – | 2% | 3% | 21% |
| CCCC[C@H](NC(=O)[C@H](C)NC(=O)[C@H](C)NC(=O)[C@]1(C)CCCC=CCCCCCC[C@@](C)(NC(=O)[C@H](Cc2ccccc2)NC(=O)[C@@H](NC(=O)[C@H](CC(C)C)NC(C)=O)[C@@H](C)O)C(=O)N[C@@H](CCC(=O)O)C(=O)N[C@@H](Cc2ccc(O)cc2)C(=O)N[C@@H](Cc2c[nH]c3ccccc23)C(=O)N[C@@H](C)C(=O)N[C@@H](CCC(N)=O)C(=O)N[C@@H](CC2CCC2)C(=O)N1)C(=O)N[C@@H](C)C(N)=O [compound 238] (Ac-LTF[R8]EYWAQ[Cba][S5]AA[Nle]A-NH2; staple 4-11) | 1 | 2 | 4 | 21 | – | – | – |
| CC(=O)N[C@@H](CCC(=O)O)C(=O)N[C@H](C(=O)N[C@@H](Cc1ccccc1)C(=O)N[C@]1(C)CCCCCCC=CCCC[C@@](C)(C(=O)N[C@@H](CO)C(=O)N[C@@H](CC(C)C)C(=O)N[C@@H](C)C(N)=O)NC(=O)[C@H](CC(C)C)NC(=O)[C@H](CCC(N)=O)NC(=O)[C@H](C)NC(=O)[C@H](Cc2c[nH]c3ccccc23)NC(=O)[C@H](Cc2ccc(O)cc2)NC(=O)[C@H](C(C)C)NC1=O)[C@@H](C)O [compound 127] (Ac-ETF[R8]VYWAQL[S5]SLA-NH2; staple 4-11) | 1 | 1 | 4 | 13 | – | – | – |
